Literature values as cited in US12599598B2, “Osmotic dosage forms comprising deutetrabenazine and methods of use thereof” (Auspex Pharmaceuticals, Inc., priority 2020, dated 2026).

Conditions: in vivo

[2H]C([2H])([2H])Oc1cc2c(cc1OC([2H])([2H])[2H])[C@H]1CC(=O)[C@H](CC(C)C)CN1CC2 [Deutetrabenazine, (RR,SS)-1,3,4,6,7,11b-hexahydro-9,10-di(methoxy-d3)-3-(2-methylpropyl)-2H-benzo[a]quinolizin-2-one]
half-life of its active metabolites, relative to tetrabenazine: increased half-life
